Measurements taken from patent US20100267561A1, “HERBICIDAL PYRIDAZINONE DERIVATIVES” (priority 2007, published 2010).

Key:
Format in all cases: in vivo
[1] = tested on: windgrass (Apera spica-venti); experiment: Test B postemergence plant response; conditions: for Windgrass plant response rating: postemergence, 0-100 scale; for Plant response rating, Windgrass: Postemergence
Procedure, shortened: (§1)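 Test compounds were applied postemergence to plants 2 to 18 cm tall (1- to 4-leaf stage). After 13 to 15 days in a greenhouse, each species was visually compared with untreated controls and rated 0 (no effect) to 100 (complete control).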

[2] = tested on: winter barley (Hordeum vulgare); experiment: Test B postemergence plant response; conditions: for Barley plant response rating: postemergence; for Plant response rating, Barley: Postemergence, scale 0 to 100, 0 no effect, 100 complete control
Procedure, shortened: as §1

[3] = tested on: canarygrass (Phalaris minor); experiment: Test B postemergence plant response; conditions: for Plant response rating, Canarygrass: Postemergence; for Canarygrass plant response rating: postemergence, 0-100 scale
Procedure, shortened: as §1

[4] = tested on: chickweed (Stellaria media); experiment: Test B postemergence plant response; conditions: for Chickweed plant response rating: postemergence, 0-100 scale; for Plant response rating, Chickweed: Postemergence
Procedure, shortened: as §1

rice (Oryza sativa) = experiment: Test B flooded paddy test plant response
Procedure, shortened: (§2)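 2-leaf plants; pots flooded 3 cm above soil; compound added to paddy water; depth maintained. Greenhouse 13–15 d. Visual rating vs controls, 0 (no effect) to 100 (complete control); dash = no result.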

[5] = tested on: umbrella sedge (Cyperus difformis); experiment: Test B flooded paddy test plant response
Procedure, shortened: as §2

[6] = tested on: ducksalad (Heteranthera limosa); experiment: Test B flooded paddy test plant response
Procedure, shortened: as §2

[7] = tested on: barnyardgrass (Echinochloa crus-galli); experiment: Test B flooded paddy test plant response
Procedure, shortened: as §2

[8] = tested on: wheat (Triticum aestivum); experiment: Test A pre-/postemergence plant response
Procedure, shortened: (§3)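 Seeds sown in loam–sand blend; test chemicals in non-phytotoxic solvent with surfactant applied preemergence as directed soil spray and, concurrently, postemergence to plants 2–10 cm tall at one- to two-leaf stage. Greenhouse ~10 days, then visual injury rating vs untreated controls on 0–100 scale (0 = no effect, 100 = complete control).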

[9] = tested on: pigweed (Amaranthus retroflexus); experiment: Test A pre-/postemergence plant response
Procedure, shortened: as §3

[10] = tested on: barnyardgrass (Echinochloa crus-galli); experiment: Test A pre-/postemergence plant response
Procedure, shortened: as §3

[11] = tested on: large crabgrass (Digitaria sanguinalis); experiment: Test A pre-/postemergence plant response
Procedure, shortened: as §3

[12] = 62 g ai/ha, scale 0 to 100, 0 no effect, 100 complete control
[13] = Flood (flooded paddy test), 62 g ai/ha, scale 0 to 100, 0 no effect, 100 complete control
[14] = Flood (flooded paddy test), 125 g ai/ha, scale 0 to 100, 0 no effect, 100 complete control
[15] = Flood (flooded paddy test), 250 g ai/ha, scale 0 to 100, 0 no effect, 100 complete control
[16] = Flood, 31 g ai/ha, scale 0 to 100
[17] = Postemergence, 31 g ai/ha, 0 to 100 scale, 0 no effect, 100 complete control
[18] = Postemergence, 125 g ai/ha, 0 to 100 scale, 0 no effect, 100 complete control
[19] = Preemergence, 31 g ai/ha, 0 to 100 scale, 0 is no effect, 100 is complete control
[20] = Preemergence, 125 g ai/ha, 0 to 100 scale (0 no effect, 100 complete control)

## CCCc1cc(-c2ccc(C(F)(F)F)cc2)nn1-c1c(O)cnn(C)c1=O [Compound 72]
[1]; 8 g ai/ha
  Windgrass plant response rating: 85
[1]; 16 g ai/ha
  Windgrass plant response rating: 100
[1]; 31 g ai/ha, scale 0 to 100
  Plant response rating, Windgrass: 100
[1]; [12]
  Plant response rating, Windgrass: 100
[2]; 8 g ai/ha, 0-100 scale
  Barley plant response rating: 0
[2]; 16 g ai/ha
  Plant response rating, Barley: 0
[2]; 31 g ai/ha
  Plant response rating, Barley: 0
[2]; 62 g ai/ha
  Plant response rating, Barley: 95
[3]; 16 g ai/ha, scale 0 to 100
  Plant response rating, Canarygrass: 30
[3]; 31 g ai/ha, scale 0 to 100
  Plant response rating, Canarygrass: 30
[3]; [12]
  Plant response rating, Canarygrass: 95
[4]; 8 g ai/ha
  Chickweed plant response rating: 0
[4]; 16 g ai/ha, scale 0 to 100
  Plant response rating, Chickweed: 0
[4]; 31 g ai/ha, scale 0 to 100
  Plant response rating, Chickweed: 0
[4]; [12]
  Plant response rating, Chickweed: 0
Rice (Oryza sativa); [13]
  Plant response rating, Rice: 15
Rice (Oryza sativa); [14]
  Plant response rating, Rice: 45
Rice (Oryza sativa); [15]
  Plant response rating, Rice: 65
Rice (Oryza sativa); [16]
  Plant response rating, Rice: 10
[5]; [13]
  Plant response rating, Sedge, Umbrella: 0
[5]; [14]
  Plant response rating, Sedge, Umbrella: 60
[5]; [15]
  Plant response rating, Sedge, Umbrella: 65
[5]; [16]
  Plant response rating, Sedge, Umbrella: 0
[6]; [13]
  Plant response rating, Ducksalad: 0
[6]; [14]
  Plant response rating, Ducksalad: 0
[6]; [15]
  Plant response rating, Ducksalad: 40
[6]; [16]
  Plant response rating, Ducksalad: 0
[7]; [13]
  Plant response rating, Barnyardgrass: 20
[7]; [14]
  Plant response rating, Barnyardgrass: 40
[7]; [15]
  Plant response rating, Barnyardgrass: 70
[7]; [16]
  Plant response rating, Barnyardgrass: 0
[8]; [17]
  Plant response rating, Wheat: 60
[8]; [18]
  Plant response rating, Wheat: 90
[8]; [19]
  Plant response rating, Wheat: 50
[8]; [20]
  Plant response rating, Wheat: 80
[9]; [17]
  Plant response rating, Pigweed: 0
[9]; [18]
  Plant response rating, Pigweed: 0
[9]; [19]
  Plant response rating, Pigweed: 0
[9]; [20]
  Plant response rating, Pigweed: 0
[10]; [17]
  Plant response rating, Barnyardgrass: 50
[10]; [18]
  Plant response rating, Barnyardgrass: 100
[10]; [19]
  Plant response rating, Barnyardgrass: 20
[10]; [20]
  Plant response rating, Barnyardgrass: 90
[11]; [17]
  Plant response rating, Crabgrass, Large: 20
[11]; [18]
  Plant response rating, Crabgrass, Large: 90
[11]; [19]
  Plant response rating, Crabgrass, Large: 0
[11]; [20]
  Plant response rating, Crabgrass, Large: 60

## CCc1cc(-c2ccc(Br)cc2)nn1-c1c(O)cnn(CC(F)(F)F)c1=O [Compound 73]
[1]; 8 g ai/ha
  Windgrass plant response rating: 50
[1]; 16 g ai/ha
  Windgrass plant response rating: 60
[1]; 31 g ai/ha, scale 0 to 100
  Plant response rating, Windgrass: 80
[1]; [12]
  Plant response rating, Windgrass: 95
[2]; 8 g ai/ha, 0-100 scale
  Barley plant response rating: 0
[2]; 16 g ai/ha
  Plant response rating, Barley: 40
[2]; 31 g ai/ha
  Plant response rating, Barley: 40
[2]; 62 g ai/ha
  Plant response rating, Barley: 70
[3]; 8 g ai/ha
  Canarygrass plant response rating: 30
[3]; 16 g ai/ha, scale 0 to 100
  Plant response rating, Canarygrass: 90
[3]; 31 g ai/ha, scale 0 to 100
  Plant response rating, Canarygrass: 90
[3]; [12]
  Plant response rating, Canarygrass: 100
[4]; 8 g ai/ha
  Chickweed plant response rating: 0
[4]; 16 g ai/ha, scale 0 to 100
  Plant response rating, Chickweed: 0
[4]; 31 g ai/ha, scale 0 to 100
  Plant response rating, Chickweed: 0
[4]; [12]
  Plant response rating, Chickweed: 0
Rice (Oryza sativa); [13]
  Plant response rating, Rice: 0
Rice (Oryza sativa); [14]
  Plant response rating, Rice: 0
Rice (Oryza sativa); [15]
  Plant response rating, Rice: 0
Rice (Oryza sativa); [16]
  Plant response rating, Rice: 0
[5]; [13]
  Plant response rating, Sedge, Umbrella: 0
[5]; [14]
  Plant response rating, Sedge, Umbrella: 0
[5]; [15]
  Plant response rating, Sedge, Umbrella: 0
[5]; [16]
  Plant response rating, Sedge, Umbrella: 0
[6]; [13]
  Plant response rating, Ducksalad: 0
[6]; [14]
  Plant response rating, Ducksalad: 0
[6]; [15]
  Plant response rating, Ducksalad: 0
[6]; [16]
  Plant response rating, Ducksalad: 0
[7]; [13]
  Plant response rating, Barnyardgrass: 0
[7]; [14]
  Plant response rating, Barnyardgrass: 0
[7]; [15]
  Plant response rating, Barnyardgrass: 0
[7]; [16]
  Plant response rating, Barnyardgrass: 0
[8]; [17]
  Plant response rating, Wheat: 40
[8]; [18]
  Plant response rating, Wheat: 70
[8]; [19]
  Plant response rating, Wheat: 20
[8]; [20]
  Plant response rating, Wheat: 70
[9]; [17]
  Plant response rating, Pigweed: 10
[9]; [18]
  Plant response rating, Pigweed: 10
[9]; [19]
  Plant response rating, Pigweed: 0
[9]; [20]
  Plant response rating, Pigweed: 0
[10]; [17]
  Plant response rating, Barnyardgrass: 60
[10]; [18]
  Plant response rating, Barnyardgrass: 100
[10]; [19]
  Plant response rating, Barnyardgrass: 0
[10]; [20]
  Plant response rating, Barnyardgrass: 10
[11]; [17]
  Plant response rating, Crabgrass, Large: 40
[11]; [18]
  Plant response rating, Crabgrass, Large: 100
[11]; [19]
  Plant response rating, Crabgrass, Large: 0
[11]; [20]
  Plant response rating, Crabgrass, Large: 50

## CCCc1cc(-c2ccc(Cl)cc2)nn1-c1c(O)cnn(C)c1=O [Compound 76]
[1]; 8 g ai/ha
  Windgrass plant response rating: 30
[1]; 16 g ai/ha
  Windgrass plant response rating: 80
[1]; 31 g ai/ha, scale 0 to 100
  Plant response rating, Windgrass: 80
[1]; [12]
  Plant response rating, Windgrass: 90
[2]; 8 g ai/ha, 0-100 scale
  Barley plant response rating: 0
[2]; 16 g ai/ha
  Plant response rating, Barley: 0
[2]; 31 g ai/ha
  Plant response rating, Barley: 5
[2]; 62 g ai/ha
  Plant response rating, Barley: 25
[3]; 8 g ai/ha
  Canarygrass plant response rating: 45
[3]; 16 g ai/ha, scale 0 to 100
  Plant response rating, Canarygrass: 60
[3]; 31 g ai/ha, scale 0 to 100
  Plant response rating, Canarygrass: 90
[3]; [12]
  Plant response rating, Canarygrass: 98
[4]; 8 g ai/ha
  Chickweed plant response rating: 0
[4]; 16 g ai/ha, scale 0 to 100
  Plant response rating, Chickweed: 0
[4]; 31 g ai/ha, scale 0 to 100
  Plant response rating, Chickweed: 0
[4]; [12]
  Plant response rating, Chickweed: 0
Rice (Oryza sativa); [13]
  Plant response rating, Rice: 0
Rice (Oryza sativa); [15]
  Plant response rating, Rice: 0
[5]; [13]
  Plant response rating, Sedge, Umbrella: 0
[5]; [15]
  Plant response rating, Sedge, Umbrella: 0
[6]; [13]
  Plant response rating, Ducksalad: 0
[6]; [15]
  Plant response rating, Ducksalad: 0
[7]; [13]
  Plant response rating, Barnyardgrass: 0
[7]; [15]
  Plant response rating, Barnyardgrass: 0
[8]; [17]
  Plant response rating, Wheat: 20
[8]; [18]
  Plant response rating, Wheat: 50
[8]; [19]
  Plant response rating, Wheat: 0
[8]; [20]
  Plant response rating, Wheat: 0
[9]; [17]
  Plant response rating, Pigweed: 0
[9]; [18]
  Plant response rating, Pigweed: 0
[9]; [19]
  Plant response rating, Pigweed: 0
[9]; [20]
  Plant response rating, Pigweed: 0
[10]; [17]
  Plant response rating, Barnyardgrass: 90
[10]; [18]
  Plant response rating, Barnyardgrass: 100
[10]; [19]
  Plant response rating, Barnyardgrass: 40
[10]; [20]
  Plant response rating, Barnyardgrass: 100
[11]; [17]
  Plant response rating, Crabgrass, Large: 20
[11]; [18]
  Plant response rating, Crabgrass, Large: 100
[11]; [19]
  Plant response rating, Crabgrass, Large: 20
[11]; [20]
  Plant response rating, Crabgrass, Large: 80

## COc1nn(C)c(=O)c(-n2nc(-c3ccc(Br)cc3)cc2C)c1O [Compound 82]
[1]; 8 g ai/ha
  Windgrass plant response rating: 70
[1]; 16 g ai/ha
  Windgrass plant response rating: 100
[1]; 31 g ai/ha, scale 0 to 100
  Plant response rating, Windgrass: 100
[1]; [12]
  Plant response rating, Windgrass: 100
[2]; 8 g ai/ha, 0-100 scale
  Barley plant response rating: 90
[2]; 16 g ai/ha, 0-100 scale (0 no effect, 100 complete control)
  Barley plant response rating: 98
[2]; 31 g ai/ha
  Plant response rating, Barley: 100
[2]; 62 g ai/ha
  Plant response rating, Barley: 100
[3]; 8 g ai/ha
  Canarygrass plant response rating: 80
[3]; 16 g ai/ha
  Canarygrass plant response rating: 95
[3]; 31 g ai/ha, scale 0 to 100
  Plant response rating, Canarygrass: 100
[3]; [12]
  Plant response rating, Canarygrass: 100
[4]; 8 g ai/ha
  Chickweed plant response rating: 0
[4]; 16 g ai/ha
  Chickweed plant response rating: 0
[4]; 31 g ai/ha, scale 0 to 100
  Plant response rating, Chickweed: 0
[4]; [12]
  Plant response rating, Chickweed: 90
[8]; [17]
  Plant response rating, Wheat: 90
[8]; [18]
  Plant response rating, Wheat: 100
[8]; [19]
  Plant response rating, Wheat: 50
[8]; [20]
  Plant response rating, Wheat: 90
[9]; [17]
  Plant response rating, Pigweed: 0
[9]; [18]
  Plant response rating, Pigweed: 0
[9]; [19]
  Plant response rating, Pigweed: 0
[9]; [20]
  Plant response rating, Pigweed: 0
[10]; [17]
  Plant response rating, Barnyardgrass: 100
[10]; [18]
  Plant response rating, Barnyardgrass: 100
[10]; [19]
  Plant response rating, Barnyardgrass: 50
[10]; [20]
  Plant response rating, Barnyardgrass: 100
[11]; [17]
  Plant response rating, Crabgrass, Large: 100
[11]; [18]
  Plant response rating, Crabgrass, Large: 100
[11]; [19]
  Plant response rating, Crabgrass, Large: 50
[11]; [20]
  Plant response rating, Crabgrass, Large: 100
